pIC50: −log10 of the molar value.
target: T1, Recombinant human DGAT2 protein (Homo sapiens, UniProt Q96PD7); test: Measurement of inhibitory effect against DGAT2 enzyme activity (SPA, Phospholipid FlashPlate, [14C]-TG production); format: biochemical; conditions: concentration inhibiting [14C]-labeled triacyl glycerol (TG) production by 50%; 2 μg DGAT2-membrane protein from Sf-21 cells, 37° C.
T1 construct: FLAG (DYKDDDDK); (N); made in house; host or cells: Sf-21 insect cells (BacPAK baculovirus system); used as a membrane preparation
T1 sequence (Q96PD7 1-388): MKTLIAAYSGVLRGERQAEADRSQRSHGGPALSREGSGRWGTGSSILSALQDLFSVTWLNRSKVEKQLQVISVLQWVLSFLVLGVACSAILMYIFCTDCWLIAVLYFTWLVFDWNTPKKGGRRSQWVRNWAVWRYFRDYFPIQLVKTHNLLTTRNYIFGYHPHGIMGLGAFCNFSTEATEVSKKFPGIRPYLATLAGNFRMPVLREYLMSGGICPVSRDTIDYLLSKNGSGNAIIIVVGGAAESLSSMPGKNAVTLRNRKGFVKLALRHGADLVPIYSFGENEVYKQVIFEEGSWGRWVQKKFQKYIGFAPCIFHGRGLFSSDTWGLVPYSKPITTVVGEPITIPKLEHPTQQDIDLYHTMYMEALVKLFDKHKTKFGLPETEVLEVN
In short: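 Membranes from Sf-21 cells expressing human DGAT2 (2 μg) preincubated 20 min at 37 °C with compound (3 nM–10 μM, 1% DMSO) in HEPES/MgCl2/BSA with 50 μM 1,2-dioleoyl glycerol, then 1 μM [14C]oleoyl-CoA for 15 min. [14C]-TG measured by SPA FlashPlate; inhibition as % of untreated control.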

SMILES | pIC50
CCOc1ccccc1O[C@@H]1CCCN(c2cncc(NC(=O)c3ccccc3)n2)C1 [Example 6, (R)—N-(6-(3-(2-ethoxyphenoxy)piperidin-1-yl)pyrazin-2-yl)benzamide] | 7.28
CCOc1ccccc1O[C@@H]1CCCN(c2cncc(NC(=O)Nc3cc(C(F)(F)F)cc(C(F)(F)F)c3)n2)C1 [Example 1, (R)-1-(3,5-bis(trifluoromethyl)phenyl)-3-(6-(3-(2-ethoxyphenoxy)piperidin-1-yl)pyrazin-2-yl)urea] | 7.35
CCOc1ccccc1O[C@@H]1CCCN(c2cncc(NC(=O)Cc3cc(C(F)(F)F)cc(C(F)(F)F)c3)n2)C1 [Example 27, (R)-2-(3,5-bis(trifluoromethyl)phenyl)-N-(6-(3-(2-ethoxyphenoxy)piperidin-1-yl)pyrazin-2-yl)acetamide] | 7.31
CCOc1ccccc1O[C@@H]1CCCN(c2cncc(NC(=O)CCc3ccc(CC(N)=O)cc3)n2)C1 [Example 50] | 8.02
CC(C)(C(=O)O)c1ccc(CCC(=O)Nc2cncc(N3CCC[C@@H](Oc4ccccc4OC4CCC4)C3)n2)cc1 [Example 98, (R)-2-(4-(3-((6-(3-(2-cyclobutoxyphenoxy)piperidin-1-yl)pyrazin-2-yl)amino)-3-oxopropyl)phenyl)-2-methylpropanoic acid] | 7.09
CCOc1ccccc1O[C@@H]1CCCN(c2cncc(NC(=O)CC(C)(C)C(=O)O)n2)C1 [Example 22, (R)-4-((6-(3-(2-ethoxyphenoxy)piperidin-1-yl)pyrazin-2-yl)amino)-2,2-dimethyl-4-oxobutanoic acid] | 5.89
CCOc1ccccc1O[C@@H]1CCCN(c2cncc(NC(=O)CCc3ccc(C(=O)O)c(F)c3)n2)C1 [Example 44, (R)-4-(3-((6-(3-(2-ethoxyphenoxy)piperidin-1-yl)pyrazin-2-yl)amino)-3-oxopropyl)-2-fluorobenzoic acid] | 6.77
CCOc1ccccc1O[C@@H]1CCCN(c2cncc(NC(=O)CCC(=O)O)n2)C1 [Example 19, (R)-4-((6-(3-(2-ethoxyphenoxy)piperidin-1-yl)pyrazin-2-yl)amino)-4-oxobutanoic acid] | ~4.82
CCOc1ccccc1O[C@@H]1CCCN(c2cncc(NC(=O)c3ccccc3C(=O)O)n2)C1 [Example 11, (R)-2-((6-(3-(2-ethoxyphenoxy)piperidin-1-yl)pyrazin-2-yl)carbamoyl)benzoic acid] | 4.80
CCOc1ccccc1O[C@@H]1CCCN(c2cncc(NC(=O)N[C@@H](Cc3ccccc3)C(=O)O)n2)C1 [Example 2, ((6-((R)-3-(2-ethoxyphenoxy)piperidin-1-yl)pyrazin-2-yl)carbamoyl)-L-phenylalanine] | 4.80
CCOc1ccccc1O[C@@H]1CCCN(c2cncc(NC(=O)c3ccc(C(C)(C)C(=O)O)cc3)n2)C1 [Example 13, (R)-2-(4-((6-(3-(2-ethoxyphenoxy)piperidin-1-yl)pyrazin-2-yl)carbamoyl)phenyl)-2-methylpropanoic acid] | 5.04
CCOc1ccccc1O[C@@H]1CCCN(c2cncc(NC(=O)C3CCC[C@H]3C(=O)O)n2)C1 (stereo partly drawn) [Example 20, (1R)-2-((6-((R)-3-(2-ethoxyphenoxy)piperidin-1-yl)pyrazin-2-yl)carbamoyl)cyclopentane-1-carboxylic acid] | 5.40
CCOc1ccccc1O[C@@H]1CCCN(c2cncc(NC(=O)/C=C/c3ccc(C(=O)O)cc3)n2)C1 [Example 41, (R,E)-4-(3-((6-(3-(2-ethoxyphenoxy)piperidin-1-yl)pyrazin-2-yl)amino)-3-oxoprop-1-en-1-yl)benzoic acid] | 5.51
CCOc1ccccc1O[C@@H]1CCCN(c2cncc(NC(=O)CCc3ccc(C(=O)O)c(C)c3)n2)C1 [Example 45, (R)-4-(3-((6-(3-(2-ethoxyphenoxy)piperidin-1-yl)pyrazin-2-yl)amino)-3-oxopropyl)-2-methylbenzoic acid] | 6.82
CCOc1ccccc1O[C@@H]1CCCN(c2cncc(NC(=O)C34CCC(C(=O)O)(CC3)CC4)n2)C1 [Example 21, (R)-4-((6-(3-(2-ethoxyphenoxy)piperidin-1-yl)pyrazin-2-yl)carbamoyl)bicyclo[2.2.2]octane-1-carboxylic acid] | 5.32
CCOc1ccccc1O[C@@H]1CCCN(c2cncc(NC(=O)CCC(C)(C)C(=O)O)n2)C1 [Example 24, (R)-5-((6-(3-(2-ethoxyphenoxy)piperidin-1-yl)pyrazin-2-yl)amino)-2,2-dimethyl-5-oxopentanoic acid] | 6.52
CCOc1ccccc1O[C@@H]1CCCN(c2cncc(NC(=O)c3ccc(Cl)cc3)n2)C1 [Example 7, (R)-4-chloro-N-(6-(3-(2-ethoxyphenoxy)piperidin-1-yl)pyrazin-2-yl)benzamide] | 7.35

Continued, values first:

pIC50 | SMILES
6.82 | CCOc1ccccc1O[C@@H]1CCCN(c2cncc(NC(=O)CCc3ccc(CCC(=O)O)cc3)n2)C1 [Example 61, (R)-3-(4-(3-((6-(3-(2-ethoxyphenoxy)piperidin-1-yl)pyrazin-2-yl)amino)-3-oxopropyl)phenyl)propanoic acid]
6.96 | CC(C)(Cc1ccc(CC(=O)Nc2cncc(N3CCC[C@@H](Oc4ccccc4OCCF)C3)n2)cc1)C(=O)O [Example 94, (R)-3-(4-(2-((6-(3-(2-(2-fluoroethoxy)phenoxy)piperidin-1-yl)pyrazin-2-yl)amino)-2-oxoethyl)phenyl)-2,2-dimethylpropanoic acid]
6.00 | CCOc1ccccc1O[C@@H]1CCCN(c2cncc(NC(=O)C3CCN(c4ccc(C(=O)O)cc4)CC3)n2)C1 [Example 59, (R)-4-(4-((6-(3-(2-ethoxyphenoxy)piperidin-1-yl)pyrazin-2-yl)carbamoyl)piperidin-1-yl)benzoic acid]
5.68 | CCOc1ccccc1O[C@@H]1CCCN(c2cncc(NC(=O)c3ccc(Oc4ccc(C(=O)O)cc4)cc3)n2)C1 [Example 62, (R)-4-(4-((6-(3-(2-ethoxyphenoxy)piperidin-1-yl)pyrazin-2-yl)carbamoyl)phenoxy)benzoic acid]
6.60 | CCOc1ccccc1O[C@@H]1CCCN(c2cccc(NC(=O)Cc3ccc(CC(C)(C)C(=O)O)cc3)n2)C1 [Example 71]
6.23 | CCOc1ccccc1O[C@@H]1CCCN(c2cncc(NC(=O)C3(C)CCN(c4ccc(C(=O)O)cn4)C3)n2)C1 (stereo partly drawn) [Example 89, 6-(3-((6-((R)-3-(2-ethoxyphenoxy)piperidin-1-yl)pyrazin-2-yl)carbamoyl)-3-methylpyrrolidin-1-yl)nicotinic acid]
6.21 | CCOc1ccccc1O[C@@H]1CCCN(c2cncc(NC(=O)Cc3ccc(O[C@H](C)C(=O)O)cc3)n2)C1 [Example 103, (R)-2-(4-(2-((6-((R)-3-(2-ethoxyphenoxy)piperidin-1-yl)pyrazin-2-yl)amino)-2-oxoethyl)phenoxy)propanoic acid]
6.43 | COc1ccccc1O[C@@H]1CCCN(c2cncc(NC(=O)CCc3ccc(C(C)(C)C(=O)O)cc3)n2)C1 [Example 91, (R)-2-(4-(3-((6-(3-(2-methoxyphenoxy)piperidin-1-yl)pyrazin-2-yl)amino)-3-oxopropyl)phenyl)-2-methylpropanoic acid]
6.09 | CCOc1ccccc1O[C@@H]1CCCN(c2cncc(NC(=O)CCc3ccc(N4CCC(C(=O)O)CC4)cc3)n2)C1 [Example 56, (R)-1-(4-(3-((6-(3-(2-ethoxyphenoxy)piperidin-1-yl)pyrazin-2-yl)amino)-3-oxopropyl)phenyl)piperidine-4-carboxylic acid]
6.55 | CCOc1ccccc1O[C@@H]1CCCN(c2cncc(NC(=O)CCc3cc(C)c(C(=O)O)c(C)c3)n2)C1 [Example 55, (R)-4-(3-((6-(3-(2-ethoxyphenoxy)piperidin-1-yl)pyrazin-2-yl)amino)-3-oxopropyl)-2,6-dimethylbenzoic acid]
5.60 | CCOc1cccnc1O[C@@H]1CCCN(c2ccnc(NC(=O)C(C)(C)c3ccc(CC(C)(C)C(=O)O)cc3)n2)C1 [Example 78, (R)-3-(4-(1-((4-(3-((3-ethoxypyridin-2-yl)oxy)piperidin-1-yl)pyrimidin-2-yl)amino)-2-methyl-1-oxopropan-2-yl)phenyl)-2,2-dimethylpropanoic acid]
6.20 | CCOc1ccccc1O[C@@H]1CCCN(c2cccc(NC(=O)Cc3ccc(C(C)(C)C(=O)O)cc3)n2)C1 [Example 68, (R)-2-(4-(2-((6-(3-(2-ethoxyphenoxy)piperidin-1-yl)pyridin-2-yl)amino)-2-oxoethyl)phenyl)-2-methylpropanoic acid]
7.00 | CCOc1cccnc1O[C@@H]1CCCN(c2cncc(NC(=O)CCc3cccc(CC(C)(C)C(=O)O)c3)n2)C1 [Example 128, (R)-3-(3-(3-((6-(3-((3-ethoxypyridin-2-yl)oxy)piperidin-1-yl)pyrazin-2-yl)amino)-3-oxopropyl)phenyl)-2,2-dimethylpropanoic acid]
7.05 | CCOc1cccnc1O[C@@H]1CCCN(c2cncc(NC(=O)Cc3ccc(OC(C)(C)C(=O)O)cc3)n2)C1 [Example 105, (R)-2-(4-(2-((6-(3-((3-ethoxypyridin-2-yl)oxy)piperidin-1-yl)pyrazin-2-yl)amino)-2-oxoethyl)phenoxy)-2-methylpropanoic acid]
